Among the data in PubChem BioAssay (NCI) are TGI values, retold here.

Structures are written as SMILES.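 All cell lines were grown in 96-well plates and treated with compound for 48 hours. TGI: concentration producing complete growth inhibition.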 Bounds are passed on as bounds.

For the first experiment, the system named is 786-0 renal. As to the kind of experiment: growth of human tumour cells (NCI), 48 h.
`COc1ccc(-c2cc(O)c3nc4ccccc4n3c2)cc1` yielded a TGI of more than 100 µM.
In the case of `C[C@@H]1CC[C@]2(C(=O)O)CC[C@]3(C)C(=CC[C@@H]4[C@@]5(C)CC[C@H](O)C(C)(C)[C@@H]5CC[C@]43C)[C@@H]2[C@]1(C)O`, the TGI came out at 18.7 µM.
In turn, `CC(C)=CCc1c2c(c3occ(-c4ccc(O)cc4)c(=O)c3c1O)CC(C(C)(C)O)O2` (stereo unspecified) had a TGI of 35.6 µM.
`CC1(C)N=[N+]([O-])C1(C)C` had a TGI of more than 100 µM.
Consider `COc1ccc(C2CC(c3c(O)ccc4ccccc34)=NN2C(C)=O)cc1OC` (stereo unspecified), for which the TGI was more than 100 µM.
Take `C1CN(c2nc3c(nnc4nc(N5CCOCC5)sc43)s2)CCO1`: the TGI is more than 100 µM.
The same measure, in the same setting: next, `NC(N)=N/N=C/c1c(-c2ccc(N)cc2)nc2sccn12`: 62 µM; `CN1C(=O)C2CCC(=O)N2c2cccnc21` (stereo unspecified): more than 100 µM; `CCOC(=O)CSc1c(C(=O)OCC)c(=O)n(-c2ccccc2)c(=S)n1-c1ccccc1`: more than 100 µM.
Consider `C=CC1(C)CCC2C(=CCC3C2(C)CC(O)C(O)C3(C)COC2OC(C(=O)O)C(O)C(O)C2O)C1` (stereo unspecified) (tested in a mixture with another compound), for which the TGI is more than 100 µM.
Compound `COCO[C@@H]1C[C@H]2C(=O)Nc3ccccc3C(=O)N2C1` yielded a TGI of more than 100 µM.
`O=c1c2cc([N+](=O)[O-])cnc2sn1-c1ccc([N+](=O)[O-])cc1` yielded a TGI of more than 100 µM.
Turning to `Cc1ccc(C(=O)O)cc1S(=O)(=O)Nn1cnc2ccc(S(=O)(=O)Nc3ccccc3C(=O)O)cc2c1=O`, the TGI was more than 100 µM.
Still for that read-out and setting: as for `Cc1ccc(-c2n[nH]c(=O)n2N2C(=O)c3ccccc3C2=O)cc1`, the figure is more than 100 µM; as for `S=C1Nc2ccccc2SC1c1ccccc1` (stereo unspecified), more than 100 µM.
In turn, `CN(C)C(=O)O/N=C1/C(c2c(O)[nH]c3ccccc23)=Nc2ccccc21` came in with a TGI of 21.8 µM.
`O=[N+]([O-])c1ccc2c(c1)c(OCc1ccccc1)nn2Cc1ccccc1` returned a TGI of more than 100 µM.
On to `Cc1cc(Cc2cc(C)c(N)cc2N)c(N)cc1N`, for which the TGI was more than 100 µM.
`COC(=O)c1ccccc1CC1Cc2ccc3c(c2C1=O)CCCC3` (stereo unspecified): the TGI is more than 100 µM.
Turning to `O=C1/C(=C\c2ccccc2)C(NC2CCCCC2)c2ccccc21` (stereo unspecified), the TGI is 2.14 µM.
The compound `CCOC(=O)C1(C/C=C/CBr)Cc2ccccc2C1=O` (stereo unspecified) registered a TGI of 25.8 µM.
Regarding `COc1ccc(-c2c(C#N)c(-c3ccc(C)cc3)n(NS(=O)(=O)c3ccc(C)cc3)c(=O)c2C#N)cc1`, the TGI was more than 100 µM.
As to `Clc1ccccc1C(SCc1ccccc1)SCc1ccccc1`, the TGI was more than 100 µM.

The next experiment deals with A549 NSCLC. As to the kind of experiment: growth of human tumour cells (NCI), 48 h.
Regarding `COc1ccc(-c2cc(O)c3nc4ccccc4n3c2)cc1`, the TGI is more than 100 µM.
Regarding `C[C@@H]1CC[C@]2(C(=O)O)CC[C@]3(C)C(=CC[C@@H]4[C@@]5(C)CC[C@H](O)C(C)(C)[C@@H]5CC[C@]43C)[C@@H]2[C@]1(C)O`, the TGI worked out at 33.3 µM.
For the compound `CC(C)=CCc1c2c(c3occ(-c4ccc(O)cc4)c(=O)c3c1O)CC(C(C)(C)O)O2` (stereo unspecified), the TGI was 27.8 µM.
For `CC1(C)N=[N+]([O-])C1(C)C`, the TGI was more than 100 µM.
Still for that read-out and setting: next, `COc1ccc(C2CC(c3c(O)ccc4ccccc34)=NN2C(C)=O)cc1OC` (stereo unspecified): more than 100 µM; `C1CN(c2nc3c(nnc4nc(N5CCOCC5)sc43)s2)CCO1`: more than 100 µM.
The compound `NC(N)=N/N=C/c1c(-c2ccc(N)cc2)nc2sccn12` returned a TGI of 47.6 µM.
`CN1C(=O)C2CCC(=O)N2c2cccnc21` (stereo unspecified) returned a TGI of more than 100 µM.
As for `CCOC(=O)CSc1c(C(=O)OCC)c(=O)n(-c2ccccc2)c(=S)n1-c1ccccc1`, the TGI is more than 100 µM.
For the compound `C=CC1(C)CCC2C(=CCC3C2(C)CC(O)C(O)C3(C)COC2OC(C(=O)O)C(O)C(O)C2O)C1` (stereo unspecified) (tested in a mixture with another compound), the TGI is more than 100 µM.
`COCO[C@@H]1C[C@H]2C(=O)Nc3ccccc3C(=O)N2C1` had a TGI of more than 100 µM.
`O=c1c2cc([N+](=O)[O-])cnc2sn1-c1ccc([N+](=O)[O-])cc1` returned a TGI of more than 100 µM.
On the same count and under the same terms, as for `Cc1ccc(C(=O)O)cc1S(=O)(=O)Nn1cnc2ccc(S(=O)(=O)Nc3ccccc3C(=O)O)cc2c1=O`, the figure is more than 100 µM; as for `Cc1ccc(-c2n[nH]c(=O)n2N2C(=O)c3ccccc3C2=O)cc1`, more than 100 µM; as for `S=C1Nc2ccccc2SC1c1ccccc1` (stereo unspecified), more than 100 µM.
In the case of `CN(C)C(=O)O/N=C1/C(c2c(O)[nH]c3ccccc23)=Nc2ccccc21`, the TGI was more than 100 µM.
`O=[N+]([O-])c1ccc2c(c1)c(OCc1ccccc1)nn2Cc1ccccc1` displayed a TGI of more than 100 µM.
As for `Cc1cc(Cc2cc(C)c(N)cc2N)c(N)cc1N`, the TGI is more than 100 µM.
`COC(=O)c1ccccc1CC1Cc2ccc3c(c2C1=O)CCCC3` (stereo unspecified) came in with a TGI of more than 100 µM.
On the same count and under the same terms, next, `O=C1/C(=C\c2ccccc2)C(NC2CCCCC2)c2ccccc21` (stereo unspecified): 16.4 µM; `CCOC(=O)C1(C/C=C/CBr)Cc2ccccc2C1=O` (stereo unspecified): more than 35.7 µM.
Still for that read-out and setting: next, `COc1ccc(-c2c(C#N)c(-c3ccc(C)cc3)n(NS(=O)(=O)c3ccc(C)cc3)c(=O)c2C#N)cc1`: more than 100 µM.
For the compound `Clc1ccccc1C(SCc1ccccc1)SCc1ccccc1`, the TGI was more than 100 µM.

The test system of the next experiment is BT-549 breast. In words: growth of human tumour cells (NCI), 48 h.
Regarding `COc1ccc(-c2cc(O)c3nc4ccccc4n3c2)cc1`, the TGI was more than 100 µM.
In turn, `C[C@@H]1CC[C@]2(C(=O)O)CC[C@]3(C)C(=CC[C@@H]4[C@@]5(C)CC[C@H](O)C(C)(C)[C@@H]5CC[C@]43C)[C@@H]2[C@]1(C)O` showed a TGI of 28.2 µM.
On to `CC(C)=CCc1c2c(c3occ(-c4ccc(O)cc4)c(=O)c3c1O)CC(C(C)(C)O)O2` (stereo unspecified), for which the TGI came out at 31 µM.
As for `CC1(C)N=[N+]([O-])C1(C)C`, the TGI is more than 100 µM.
As for `COc1ccc(C2CC(c3c(O)ccc4ccccc34)=NN2C(C)=O)cc1OC` (stereo unspecified), the TGI came out at 43.9 µM.
With `C1CN(c2nc3c(nnc4nc(N5CCOCC5)sc43)s2)CCO1`, the TGI is more than 100 µM.
Same read-out and setting: next, `NC(N)=N/N=C/c1c(-c2ccc(N)cc2)nc2sccn12`: more than 100 µM.
Consider `CN1C(=O)C2CCC(=O)N2c2cccnc21` (stereo unspecified), for which the TGI is more than 100 µM.
As for `CCOC(=O)CSc1c(C(=O)OCC)c(=O)n(-c2ccccc2)c(=S)n1-c1ccccc1`, the TGI was more than 100 µM.
Compound `C=CC1(C)CCC2C(=CCC3C2(C)CC(O)C(O)C3(C)COC2OC(C(=O)O)C(O)C(O)C2O)C1` (stereo unspecified) (tested in a mixture with another compound) returned a TGI of more than 100 µM.
In turn, `COCO[C@@H]1C[C@H]2C(=O)Nc3ccccc3C(=O)N2C1` yielded a TGI of more than 100 µM.
On to `O=c1c2cc([N+](=O)[O-])cnc2sn1-c1ccc([N+](=O)[O-])cc1`, for which the TGI came out at 93.9 µM.
On to `Cc1ccc(C(=O)O)cc1S(=O)(=O)Nn1cnc2ccc(S(=O)(=O)Nc3ccccc3C(=O)O)cc2c1=O`, for which the TGI was more than 100 µM.
`Cc1ccc(-c2n[nH]c(=O)n2N2C(=O)c3ccccc3C2=O)cc1` registered a TGI of more than 100 µM.
The same measure, in the same setting: next, `S=C1Nc2ccccc2SC1c1ccccc1` (stereo unspecified): more than 100 µM; `CN(C)C(=O)O/N=C1/C(c2c(O)[nH]c3ccccc23)=Nc2ccccc21`: 43.7 µM; `O=[N+]([O-])c1ccc2c(c1)c(OCc1ccccc1)nn2Cc1ccccc1`: more than 100 µM.
Compound `Cc1cc(Cc2cc(C)c(N)cc2N)c(N)cc1N` gave a TGI of more than 100 µM.
With `COC(=O)c1ccccc1CC1Cc2ccc3c(c2C1=O)CCCC3` (stereo unspecified), the TGI was more than 100 µM.
`O=C1/C(=C\c2ccccc2)C(NC2CCCCC2)c2ccccc21` (stereo unspecified) gave a TGI of 5.69 µM.
